In patent US12371428B2 (Exelixis, Inc., priority 2019, dated 2025):
Counter-ions that a name gives are not always drawn.

Key:
[1] = target: Human MER (residues 528-999) (Homo sapiens (Human), UniProt Q12866); test: Human Mer kinase assay, HTRF KinEase (Example C-2); type: biochemical; details: protocol of Example C-2 (other compounds)
Procedure, shortened: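 HTRF KinEase TK assay with MER 528-999 (1 ng/well) in enzymatic buffer plus 5 mM MgCl2 and 1 mM DTT, biotinylated peptide substrate and ATP at Km (40 μM), 3% DMSO final, 60 min at room temperature. Stopped with EDTA detection mix (SA-XL665, TK antibody-Eu3+), read at 665/620 nm after 60 min; IC50 from 10-point 4-parameter fit, normalized to DMSO and 1 μM reference.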

[2] = target: Met (phospho-Met, HGF-stimulated PC-3 prostate cancer cells) (Homo sapiens (Human), UniProt P08581); test: Met autophosphorylation ELISA in PC-3 cells (Example F); type: cell-based; details: cellular activity; Met autophosphorylation ELISA in PC-3 cells; read-out: c-Met IC50
Procedure, shortened: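 Compounds were tested on HGF-stimulated PC-3 cells. After 24 h culture and 3 h serum starvation, cells got compound for 1 h and 100 ng/mL HGF for 10 min, and Met tyrosine phosphorylation was measured by ELISA.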

Chain of Human MER (residues 528-999) (Q12866 528-999): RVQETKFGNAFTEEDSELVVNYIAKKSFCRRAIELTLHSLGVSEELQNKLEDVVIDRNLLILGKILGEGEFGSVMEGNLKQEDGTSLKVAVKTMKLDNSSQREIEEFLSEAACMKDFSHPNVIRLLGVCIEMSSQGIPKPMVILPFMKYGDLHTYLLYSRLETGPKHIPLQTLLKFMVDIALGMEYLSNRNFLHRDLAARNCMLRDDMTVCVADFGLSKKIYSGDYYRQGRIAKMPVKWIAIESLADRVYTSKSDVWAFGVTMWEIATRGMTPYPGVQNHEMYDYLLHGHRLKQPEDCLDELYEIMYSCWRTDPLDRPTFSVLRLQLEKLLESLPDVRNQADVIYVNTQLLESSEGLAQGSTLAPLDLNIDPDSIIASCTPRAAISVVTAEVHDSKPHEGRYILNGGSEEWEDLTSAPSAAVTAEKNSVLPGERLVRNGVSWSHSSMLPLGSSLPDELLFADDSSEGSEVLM
Chain of Met (phospho-Met, HGF-stimulated PC-3 prostate cancer cells) (P08581 25-1390): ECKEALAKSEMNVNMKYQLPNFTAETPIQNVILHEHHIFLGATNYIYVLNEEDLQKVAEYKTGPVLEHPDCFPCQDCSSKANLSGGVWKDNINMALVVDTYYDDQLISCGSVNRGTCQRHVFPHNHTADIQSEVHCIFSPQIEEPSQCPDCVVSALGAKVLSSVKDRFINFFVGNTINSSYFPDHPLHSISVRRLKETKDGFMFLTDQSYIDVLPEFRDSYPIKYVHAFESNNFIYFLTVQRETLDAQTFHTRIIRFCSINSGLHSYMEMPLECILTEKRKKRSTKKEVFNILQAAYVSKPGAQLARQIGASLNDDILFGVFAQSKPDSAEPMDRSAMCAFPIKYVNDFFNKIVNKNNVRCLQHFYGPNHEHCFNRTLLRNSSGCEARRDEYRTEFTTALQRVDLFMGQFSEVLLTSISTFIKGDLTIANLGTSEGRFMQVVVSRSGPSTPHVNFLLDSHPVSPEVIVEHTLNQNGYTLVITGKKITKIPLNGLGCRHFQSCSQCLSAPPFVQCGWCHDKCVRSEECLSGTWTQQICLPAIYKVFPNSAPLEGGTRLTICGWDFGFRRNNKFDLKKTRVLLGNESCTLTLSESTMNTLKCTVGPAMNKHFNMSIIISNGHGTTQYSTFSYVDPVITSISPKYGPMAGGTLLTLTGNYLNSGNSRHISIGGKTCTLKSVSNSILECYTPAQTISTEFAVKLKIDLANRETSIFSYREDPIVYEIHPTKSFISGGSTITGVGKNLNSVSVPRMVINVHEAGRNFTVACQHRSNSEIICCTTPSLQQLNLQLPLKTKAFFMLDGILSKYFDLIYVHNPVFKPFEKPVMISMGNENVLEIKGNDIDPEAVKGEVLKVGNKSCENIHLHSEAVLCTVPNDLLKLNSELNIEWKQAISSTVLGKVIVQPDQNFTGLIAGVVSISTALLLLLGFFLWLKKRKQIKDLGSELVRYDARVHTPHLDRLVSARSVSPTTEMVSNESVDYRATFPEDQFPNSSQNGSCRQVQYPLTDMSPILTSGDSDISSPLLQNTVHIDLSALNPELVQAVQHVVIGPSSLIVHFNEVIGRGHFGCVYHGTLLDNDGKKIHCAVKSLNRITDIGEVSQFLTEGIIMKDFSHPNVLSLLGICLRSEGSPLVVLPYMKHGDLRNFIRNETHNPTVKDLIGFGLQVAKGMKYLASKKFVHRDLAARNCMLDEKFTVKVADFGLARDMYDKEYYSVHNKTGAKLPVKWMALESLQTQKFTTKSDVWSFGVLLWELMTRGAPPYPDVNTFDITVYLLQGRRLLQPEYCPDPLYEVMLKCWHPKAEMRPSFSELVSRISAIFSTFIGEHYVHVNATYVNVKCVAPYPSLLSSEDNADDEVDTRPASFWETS

Row | Structure (SMILES) | IC50 [1] [nM] | IC50 [2] [nM]
1 | COc1cnc2c(Oc3ccc(NC(=O)c4n[nH]c(C)c(-c5ccc(F)cc5)c4=O)cc3F)ccnc2c1 [Compound 246, N-[3-Fluoro-4-[(7-methoxy-1,5-naphthyridin-4-yl)oxy]phenyl]-5-(4-fluorophenyl)-6-methyl-4-oxo-1H-pyridazine-3-carboxamide] | < 100 | < 100
2 | COCCOc1nc2c(Oc3ccc(NC(=O)c4n[nH]c(C)c(-c5ccc(F)cc5C)c4=O)cc3F)ccnc2cc1OC [Compound 252, N-[3-Fluoro-4-[[7-methoxy-6-(2-methoxyethoxy)-1,5-naphthyridin-4-yl]oxy]phenyl]-5-(4-fluoro-2-methylphenyl)-6-methyl-4-oxo-1H-pyridazine-3-carboxamide] | < 100 | < 100
3 | COCc1nc(C)c(-c2ccc(F)cc2C)c(O)c1C(=O)Nc1ccc(Oc2ccnc3cc(OC)cnc23)c(F)c1 [Compound 193, N-[3-Fluoro-4-[(7-methoxy-1,5-naphthyridin-4-yl)oxy]phenyl]-5-(4-fluoro-2-methylphenyl)-4-hydroxy-2-(methoxymethyl)-6-methylpyridine-3-carboxamide] | < 100 | < 100
4 | COc1cnc2c(Oc3ccc(NC(=O)c4cnc(C)c(-c5ccc(F)cc5C)c4O)cc3)ccnc2c1 [Compound 176, 5-(4-Fluoro-2-methylphenyl)-4-hydroxy-N-[4-[(7-methoxy-1,5-naphthyridin-4-yl)oxy]phenyl]-6-methylpyridine-3-carboxamide] | < 100 | < 100
5 | COc1cc2nccc(Oc3ccc(NC(=O)c4cn(C)c(C)c(-c5cccc(F)c5)c4=O)cc3F)c2nc1OC [Compound 37, N-[4-[(6,7-Dimethoxy-1,5-naphthyridin-4-yl)oxy]-3-fluorophenyl]-5-(3-fluorophenyl)-1,6-dimethyl-4-oxopyridine-3-carboxamide hydrochloride] | < 100 | < 100
6 | COCc1nc(C)c(-c2ccc(F)cc2)c(O)c1C(=O)Nc1ccc(Oc2ccnc3cc(OC)cnc23)cc1 [Compound 185, 5-(4-Fluorophenyl)-4-hydroxy-2-(methoxymethyl)-N-[4-[(7-methoxy-1,5-naphthyridin-4-yl)oxy]phenyl]-6-methylpyridine-3-carboxamide] | < 100 | < 100
7 | COc1cc2nccc(Oc3ccc(NC(=O)c4cn(C)c(C)c(-c5ccc(F)cc5C)c4=O)cc3)c2nc1OC [Compound 196, N-[4-[(6,7-Dimethoxy-1,5-naphthyridin-4-yl)oxy]phenyl]-5-(4-fluoro-2-methylphenyl)-1,6-dimethyl-4-oxopyridine-3-carboxamide] | < 100 | < 100
8 | COCc1nc(C)c(-c2ccc(F)cc2)c(O)c1C(=O)Nc1ccc(Oc2ccnc3cc(OC)c(OC)nc23)c(F)c1 [Compound 184, N-[4-[(6,7-Dimethoxy-1,5-naphthyridin-4-yl)oxy]-3-fluorophenyl]-5-(4-fluorophenyl)-4-hydroxy-2-(methoxymethyl)-6-methylpyridine-3-carboxamide] | < 100 | < 100
9 | COc1cc2nccc(Oc3ccc(NC(=O)c4ccc(C)n(-c5ccc(F)cc5C)c4=O)cc3F)c2nc1OC [Compound 219, N-[4-[(6,7-Dimethoxy-1,5-naphthyridin-4-yl)oxy]-3-fluorophenyl]-1-(4-fluoro-2-methylphenyl)-6-methyl-2-oxopyridine-3-carboxamide] | < 100 | < 100
10 | COc1cc2nccc(Oc3ccc(NC(=O)c4cn(C)cc(-c5cccc(F)c5)c4=O)cc3F)c2nc1OC [Compound 35, N-[4-[(6,7-Dimethoxy-1,5-naphthyridin-4-yl)oxy]-3-fluorophenyl]-5-(3-fluorophenyl)-1-methyl-4-oxopyridine-3-carboxamide hydrochloride] | < 100 | < 100
11 | COCc1nc(C)c(-c2ccc(F)cc2C)c(O)c1C(=O)Nc1ccc(Oc2ccnc3cc(OC)cnc23)cc1 [Compound 194, 5-(4-Fluoro-2-methylphenyl)-4-hydroxy-2-(methoxymethyl)-N-[4-[(7-methoxy-1,5-naphthyridin-4-yl)oxy]phenyl]-6-methylpyridine-3-carboxamide] | < 100 | < 100
12 | COCc1nc(C)c(-c2ccc(F)cc2)c(O)c1C(=O)Nc1ccc(Oc2ccnc3ccc(OC)nc23)c(F)c1 [Compound 189, N-[3-Fluoro-4-[(6-methoxy-1,5-naphthyridin-4-yl)oxy]phenyl]-5-(4-fluorophenyl)-4-hydroxy-2-(methoxymethyl)-6-methylpyridine-3-carboxamide] | < 100 | < 100
13 | COc1cnc2c(Oc3ccc(NC(=O)c4cn(C)c(CO)c(-c5ccc(F)cc5)c4=O)cc3)ccnc2c1 [Compound 223, 5-(4-Fluorophenyl)-6-(hydroxymethyl)-N-[4-[(7-methoxy-1,5-naphthyridin-4-yl)oxy]phenyl]-1-methyl-4-oxopyridine-3-carboxamide] | < 100 | < 100
14 | COc1cc2nccc(Oc3ccc(NC(=O)c4ccc(C)n(-c5ccc(F)cc5C)c4=O)cc3)c2nc1OC [Compound 225, N-[4-[(6,7-Dimethoxy-1,5-naphthyridin-4-yl)oxy]phenyl]-1-(4-fluoro-2-methylphenyl)-6-methyl-2-oxopyridine-3-carboxamide] | < 100 | < 100
15 | COc1cnc2c(Oc3ccc(NC(=O)c4nnc(C)c(-c5ccc(F)cc5C)c4O)cc3F)ccnc2c1 (single isomer, unassigned) [Compound 249C, N-[3-Fluoro-4-[(7-methoxy-1,5-naphthyridin-4-yl)oxy]phenyl]-5-(4-fluoro-2-methylphenyl)-4-hydroxy-6-methylpyridazine-3-carboxamide] | < 100 | < 100
16 | COc1cc2nccc(Oc3ccc(NC(=O)c4cn(C)cc(-c5ccccc5)c4=O)cc3F)c2nc1OC [Compound 33, N-[4-[(6,7-Dimethoxy-1,5-naphthyridin-4-yl)oxy]-3-fluorophenyl]-1-methyl-4-oxo-5-phenylpyridine-3-carboxamide hydrochloride] | < 100 | < 100
17 | COc1cnc2c(Oc3ccc(NC(=O)c4nnc(C)c(-c5ccc(F)cc5C)c4O)cc3F)ccnc2c1 (single isomer, unassigned) [Compound 249B, N-[3-Fluoro-4-[(7-methoxy-1,5-naphthyridin-4-yl)oxy]phenyl]-5-(4-fluoro-2-methylphenyl)-4-hydroxy-6-methylpyridazine-3-carboxamide] | < 100 | < 100
18 | COc1ccc2nccc(Oc3ccc(NC(=O)c4c(C)ncn(-c5ccc(F)cc5)c4=O)cc3F)c2n1 [Compound 234, N-[3-Fluoro-4-[(6-methoxy-1,5-naphthyridin-4-yl)oxy]phenyl]-1-(4-fluorophenyl)-4-methyl-6-oxopyrimidine-5-carboxamide] | < 100 | < 100
19 | COc1cc2nccc(Oc3ccc(NC(=O)c4c(C)ncc(-c5ccc(F)cc5)c4O)cc3F)c2nc1OC [Compound 237, N-[4-[(6,7-Dimethoxy-1,5-naphthyridin-4-yl)oxy]-3-fluorophenyl]-5-(4-fluorophenyl)-4-hydroxy-2-methylpyridine-3-carboxamide] | < 100 | < 100
